Measured values: the supplement of paper PMC10307832

Columns and labels:
Experiment in all cases: relative viability (nuclei count vs DMSO), 5 days (fraction); higher = more cells survive
IU1-47 + Alpelisib = compound: CC1=CC(=C(N1C2=CC=C(C=C2)Cl)C)C(=O)CN3CCCCC3 [IU1-47] + Cc1nc(NC(=O)N2CCC[C@H]2C(N)=O)sc1-c1ccnc(C(C)(C)C(F)(F)F)c1 [Alpelisib] (partner 2 µM)
Outline: (§1)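 Lung cancer cell lines in 1536-well plates got either a single drug or a fixed anchor-drug dose together with five library-drug doses (not always all listed) in √10 steps, by pin tool, on the day after seeding. Nuclei were counted after 5 days, and relative viability is the treated-to-vehicle ratio of nuclei counts. Values are medians of duplicate plates.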

FG-4592 + Palbociclib = compound: Cc1nc(C(=O)NCC(=O)O)c(O)c2ccc(Oc3ccccc3)cc12 [FG-4592] + CC(=O)c1c(C)c2cnc(Nc3ccc(N4CCNCC4)cn3)nc2n(C2CCCC2)c1=O [Palbociclib] (partner 0.5 µM)
Outline: as §1

FG-4592 + Bortezomib = compound: Cc1nc(C(=O)NCC(=O)O)c(O)c2ccc(Oc3ccccc3)cc12 [FG-4592] + CC(C)C[C@H](NC(=O)[C@H](Cc1ccccc1)NC(=O)c1cnccn1)B(O)O [Bortezomib] (partner 0.002 µM)
Outline: as §1

FG-4592 + AZD7762 = compound: Cc1nc(C(=O)NCC(=O)O)c(O)c2ccc(Oc3ccccc3)cc12 [FG-4592] + NC(=O)Nc1cc(-c2cccc(F)c2)sc1C(=O)N[C@H]1CCCNC1 [AZD7762] (partner 0.2 µM)
Outline: as §1

Row | Cell Line | relative viability (IU1-47 + Alpelisib; first compound 0.08 µM) | relative viability (IU1-47 + Alpelisib; first compound 0.253 µM) | relative viability (IU1-47 + Alpelisib; first compound 0.8 µM) | relative viability (IU1-47 + Alpelisib; first compound 2.53 µM) | relative viability (IU1-47 + Alpelisib; first compound 8 µM) | relative viability (FG-4592 + Palbociclib; first compound 0.08 µM) | relative viability (FG-4592 + Palbociclib; first compound 0.253 µM) | relative viability (FG-4592 + Palbociclib; first compound 0.8 µM) | relative viability (FG-4592 + Palbociclib; first compound 2.53 µM) | relative viability (FG-4592 + Palbociclib; first compound 8 µM) | relative viability (FG-4592 + Bortezomib; first compound 0.08 µM) | relative viability (FG-4592 + Bortezomib; first compound 0.253 µM) | relative viability (FG-4592 + Bortezomib; first compound 0.8 µM) | relative viability (FG-4592 + Bortezomib; first compound 2.53 µM) | relative viability (FG-4592 + Bortezomib; first compound 8 µM) | relative viability (FG-4592 + AZD7762; first compound 0.08 µM) | relative viability (FG-4592 + AZD7762; first compound 0.253 µM) | relative viability (FG-4592 + AZD7762; first compound 0.8 µM) | relative viability (FG-4592 + AZD7762; first compound 2.53 µM) | relative viability (FG-4592 + AZD7762; first compound 8 µM)
1 | NCI-H2023 | 0.6 | 0.531 | 0.511 | 0.627 | 0.519 | 0.334 | 0.323 | 0.315 | 0.397 | 0.286 | 1.07 | 0.924 | 0.664 | 0.763 | 0.679 |  |  |  |  | 
2 | NCI-H1944 | 0.853 | 0.886 | 0.903 |  | 0.847 | 0.329 | 0.329 | 0.282 | 0.363 | 0.29 |  |  |  |  |  | 0.479 | 0.675 | 0.368 | 0.509 | 0.471
3 | NCI-H1793 | 0.83 | 0.683 | 0.901 |  | 0.665 |  | 0.256 |  | 0.39 | 0.293 |  |  |  |  |  |  | 0.48 |  | 0.696 | 0.37
4 | NCI-H520 | 0.947 | 0.948 | 1.03 | 0.907 | 0.726 | 0.15 | 0.174 | 0.192 | 0.215 | 0.162 | 0.53 | 0.612 | 0.496 | 0.459 | 0.31 |  |  |  |  | 
5 | A549 | 0.795 | 0.767 | 0.751 | 0.936 | 0.642 |  |  |  |  |  |  |  |  |  |  |  |  |  |  | 
6 | NCI-H358 | 0.917 | 0.877 | 0.91 |  | 0.682 | 0.114 | 0.141 | 0.128 | 0.128 | 0.136 |  |  |  |  |  | 0.44 | 0.502 | 0.55 | 0.502 | 0.458
7 | NCI-H1563 | 0.909 | 0.87 | 0.871 | 0.942 | 0.816 |  |  |  |  |  | 0.647 | 0.843 | 0.751 | 0.8 | 0.661 |  |  |  |  | 
8 | NCI-H1395 | 1.07 | 1.01 | 1.04 |  | 0.991 | 0.585 | 0.615 | 0.597 | 0.688 | 0.485 |  |  |  |  |  | 0.446 | 0.396 | 0.413 | 0.385 | 0.396
9 | NCI-H2009 | 1.24 | 1.18 | 1.13 | 1.18 | 1.21 | 0.196 | 0.201 | 0.228 | 0.24 | 0.0739 | 1.02 | 0.934 | 0.948 | 0.826 | 0.882 |  |  |  |  | 
10 | SW 900 |  |  |  |  |  |  | 0.525 |  | 0.568 | 0.5 |  |  |  |  |  |  | 0.545 |  | 0.614 | 0.541
11 | IA-LM | 0.738 | 0.595 | 0.854 | 0.679 | 0.526 |  |  |  |  |  | 0.914 | 0.75 | 0.814 | 0.653 | 0.405 |  |  |  |  | 
12 | SK-LU-1 | 0.8 | 1.22 | 0.943 | 1.31 | 0.807 | 0.308 | 0.325 | 0.345 | 0.378 | 0.372 |  | 0.849 | 0.825 | 1.31 | 0.978 |  |  |  |  | 
13 | NCI-H1703 | 0.264 | 0.273 | 0.286 | 0.355 | 0.301 |  |  |  |  |  | 0.334 | 0.327 | 0.355 | 0.186 | 0.274 | 0.138 | 0.135 | 0.12 |  | 0.126
14 | NCI-H1648 |  |  |  |  |  | 0.248 | 0.29 |  | 0.282 | 0.262 |  |  |  |  |  | 0.622 | 0.662 |  | 0.714 | 0.921
